{"source": "patent US7883785B2", "about": "“Rhodium and iridium complexes” (Merck Patent GmbH, priority 2002, dated 2011)", "data": [{"assay": "Solubilities of various complexes in toluene at 20° C.", "format": "physicochemical", "details": "table title: Solubilities of various complexes", "units": {"Solubility in toluene at 20° C.": "mg/mL"}, "values": [{"compound": "c1ccc(-c2ccc3[c](c2)[Ir-3]24([c]5cc(-c6ccccc6)ccc5-c5cccc[n+]52)([c]2cc(-c5ccccc5)ccc2-c2cccc[n+]24)[n+]2ccccc2-3)cc1", "note": "[Compound 1, fac-Tris[2-(2-pyridinyl-κN)(5-(phenyl)phenyl)-κC]iridium(III)]", "Solubility in toluene at 20° C.": 6.3}, {"compound": "Cc1ccccc1-c1ccc2[c](c1)[Ir-3]13([c]4cc(-c5ccccc5C)ccc4-c4cccc[n+]41)([c]1cc(-c4ccccc4C)ccc1-c1cccc[n+]13)[n+]1ccccc1-2", "note": "[Compound 2, fac-tris[2-(2-pyridinyl-κN)(5-(o-tolyl)phenyl)-κC]iridium(III)]", "Solubility in toluene at 20° C.": 25}, {"compound": "Cc1ccc(C)c(-c2ccc3[c](c2)[Ir-3]24([c]5cc(-c6cc(C)ccc6C)ccc5-c5cccc[n+]52)([c]2cc(-c5cc(C)ccc5C)ccc2-c2cccc[n+]24)[n+]2ccccc2-3)c1", "note": "[Compound 7, fac-Tris[2-(2-pyridinyl-κN)(5-(2,5-dimethylphenyl)phenyl)-κC]-iridium(III)]", "Solubility in toluene at 20° C.": 32}, {"compound": "CC(C)COc1ccc(-c2ccc3[c](c2)[Ir-3]24([c]5cc(-c6ccc(OCC(C)C)c(OCC(C)C)c6)ccc5-c5cccc[n+]52)([c]2cc(-c5ccc(OCC(C)C)c(OCC(C)C)c5)ccc2-c2cccc[n+]24)[n+]2ccccc2-3)cc1OCC(C)C", "note": "[Compound 8, fac-Tris[2-(2-pyridinyl-κN)(5-(3,4-bis(2-methylpropoxy)phenyl)phenyl)-κC]iridium(III)]", "Solubility in toluene at 20° C.": 92}]}]}
